Patent publication US20250186503A1, “METHODS AND COMBINATIONS FOR TREATMENT AND T CELL MODULATION” (Juno Therapeutics, Inc., priority 2018, published 2025)

Tests used:
OPM-2 [1] = conditions: read-out: sensitivity to lenalidomide; cited from earlier work
RPMI-8226 = conditions: read-out: sensitivity to lenalidomide; cited from earlier work
OPM-2 [2] = test: OPM-2 human multiple myeloma orthotopic mouse model, Study 2; type: in vivo
Method: In a further study, NOD/Scid/gc^−/− (NSG) mice were injected (i.v.) with OPM-2-luciferase cells as described in Study 1 above and allowed to engraft for 14 days prior to CAR-T (or mock) cell; infusion (i.v.).
At 14 days after tumor cell injection (day 0), a subtherapeutic dose of CAR+ T cells (1×10^6 CAR-T cells (generated from two different donors)) or mock control cells was injected intravenously. Data are presented as mean±SEM. For in vivo survival, a Gehan-Breslow-Wilcoxon test was used to compare groups.
FIG. 10E depicts the results of tumor burden assessment through day 60, as analyzed by the bioluminescence […]. […] P values were obtained by likelihood ratio tests comparing the full model with the effect of interest against the model without the effect of interest.
Blood from the treated mice was collected for CAR-T pharmacokinetic analysis, and cells were stained with antibodies to exclude mouse-specific cells (H2-kd, TER119, and muCD45) and analyzed by flow cytometry. Cells were gated on CD45+CD3+ CAR+ and the cells per microliter of blood was determined. For pharmacokinetic measurements, each time point was analyzed by one-way ANOVA and Tukey post-hoc test. FIGS. 10G and 10H show the flow cytometric analysis of mock control cells and CAR-T cells in the blood of the mice at days 8, 14, 22, and 28 following injection of the CAR-T cells from two donors.

[3] = test system: K562 cells transduced to express CD19; test: Cytolytic activity of anti-CD19 CAR+ T cells against K562-CD19 cells; conditions: 1-5000 nM, E:T 2.5:1, about 120 hours
[4] = test system: Granta-519 tumor spheroids; test: Granta-519 spheroid tumor growth assay after concurrent treatment during chronic stimulation; type: cell-based, human
Description: Averaged measurement of tumor spheroid size at various times following co-culture with CAR-T cells was monitored.
The log 2 fold change compared to control cells (chronically stimulated cells that had not been concurrently treated with immunomodulatory compound) is shown in FIG. 48E. […] The results further support that immunomodulatory compounds during conditions that can promote exhaustion, such as during chronic stimulation, can improve or preserve CAR T cell function and limit, reduce or prevent CAR T cell exhaustion.

[5] = test system: K562.CD19, Raji cells or Granta-519 cells; test: Cytolytic activity against CD19+ tumor cells, rescue with Compound 2 after chronic stimulation; type: cell-based, human; conditions: 0.001 μM or 0.01 μM during rechallenge; E:T 1:1
Method: (§1) Long-term, chronic stimulation was carried out by stimulation of CAR T cells with 30 μg/mL plate-bound anti-idiotypic (anti-ID) antibody for 6 days, substantially as described in Example 22.
(§2) The assessed CD19+tumor cells included K562 cells transduced with CD19 (K562.CD19), Raji cells or Granta-519 cells.

[6] = test system: A549.CD19 tumor spheroids; test: A549.CD19 tumor spheroid model, rescue treatment after chronic stimulation; type: cell-based, human
Method: An A549.CD19 tumor spheroid model was further used to elucidate the T cell modulatory activity of the compounds. A549.CD19 tumor spheroid growth is insensitive to monotherapy treatment with the immunomodulatory compounds. […] Averaged measurement of tumor spheroid size at Day 9 following co-culture with CAR-T cells was assessed. […] The log 2 fold change compared to control cells (chronically stimulated cells that had not been concurrently treated with immunomodulatory compound) is shown in FIG. 50B.

[7] = test system: Granta-519 tumor spheroids; test: Granta-519 spheroid tumor growth assay, rescue treatment after chronic stimulation; type: cell-based, human
Method: as §1
Cells were assessed at various time points for cytolytic function and cytokine function. […] Averaged measurement of tumor spheroid size at Day 9 following co-culture with CAR-T cells was assessed. […] The log 2 fold change compared to control cells (chronically stimulated cells that had not been treated with immunomodulatory compound) is shown in FIG. 49C.

[8] = test system: K562.CD19, Raji cells or Granta-519 cells; test: Cytolytic activity against CD19+ tumor cells after concurrent Compound 2 during chronic stimulation; type: cell-based, human; conditions: 0.001 μM or 0.01 μM concurrent; E:T 1:1
Description: as §2

Ikaros = target: T1, Ikaros (Homo sapiens, UniProt Q13422+Q96SW2); test: Intracellular Ikaros expression (flow cytometry MFI) in anti-CD19 CAR-expressing T cells after overnight incubation; type: cell-based
T1 construct: intracellular levels of Ikaros in CD4+ CAR+ or CD8+ CAR+ cells; endogenous in cells; host or cells: primary human CD4+ and CD8+ T cells transduced with an anti-CD19 CAR (FMC63 scFv)
Method: Transduced populations then were separately incubated in the presence of stimulating reagents for cell expansion.

phosphorylated STAT5 = test: Phosphorylated STAT5 in CAR T cells incubated with conditioned supernatants; type: cell-based, human; conditions: both concentrations used
Method: Conditioned supernatants from stimulated CAR T cultures were harvested after overnight treatment and incubated with freshly thawed CAR T cells from three donors alone or in the presence of a blocking IL-2 antibody. After short term stimulation, CAR T cells were then assessed by flow cytometry for phosphorylated STAT5.

anti-CD19 CAR T cells = test: RNA-seq of CAR T cells sorted from tumor spheroids, Compound 1 after chronic stimulation; type: cell-based, human; conditions: 0.1 μM and 1 μM after chronic stimulation
Method: Gene expression analysis of CAR T cells sorted from tumor spheroids 5 days after co-culture was analyzed by RNA sequencing (RNA-seq) on the complementary DNA (cDNA) samples prepared from the RNA isolated from the long-term stimulated CAR-expressing T cells or on CAR-expressing T cells that had not undergone the long-term stimulation. […] Differential locus selection cut off was q<0.05 and absolute log 2 fold change>0.5 for RNA-seq.

[9] = concurrent lenalidomide (from day −1), vs vehicle with anti-BCMA CAR T alone
[10] = 5 days co-culture, rescue treatment

T1 sequence (Q13422 whole entry): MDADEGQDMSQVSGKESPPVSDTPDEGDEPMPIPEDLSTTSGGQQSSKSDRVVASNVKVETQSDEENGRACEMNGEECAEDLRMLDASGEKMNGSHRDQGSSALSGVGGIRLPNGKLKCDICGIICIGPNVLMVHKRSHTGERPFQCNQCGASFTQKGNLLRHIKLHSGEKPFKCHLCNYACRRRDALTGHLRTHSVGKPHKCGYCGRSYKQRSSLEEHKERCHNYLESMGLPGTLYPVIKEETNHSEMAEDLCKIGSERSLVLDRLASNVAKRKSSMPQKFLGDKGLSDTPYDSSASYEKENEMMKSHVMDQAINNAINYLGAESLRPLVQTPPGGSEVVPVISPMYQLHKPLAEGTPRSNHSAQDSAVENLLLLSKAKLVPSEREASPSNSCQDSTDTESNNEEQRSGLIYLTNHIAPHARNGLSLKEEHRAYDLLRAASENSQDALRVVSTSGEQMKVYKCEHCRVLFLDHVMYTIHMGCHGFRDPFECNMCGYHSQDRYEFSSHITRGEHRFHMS
T1 sequence (Q96SW2 whole entry): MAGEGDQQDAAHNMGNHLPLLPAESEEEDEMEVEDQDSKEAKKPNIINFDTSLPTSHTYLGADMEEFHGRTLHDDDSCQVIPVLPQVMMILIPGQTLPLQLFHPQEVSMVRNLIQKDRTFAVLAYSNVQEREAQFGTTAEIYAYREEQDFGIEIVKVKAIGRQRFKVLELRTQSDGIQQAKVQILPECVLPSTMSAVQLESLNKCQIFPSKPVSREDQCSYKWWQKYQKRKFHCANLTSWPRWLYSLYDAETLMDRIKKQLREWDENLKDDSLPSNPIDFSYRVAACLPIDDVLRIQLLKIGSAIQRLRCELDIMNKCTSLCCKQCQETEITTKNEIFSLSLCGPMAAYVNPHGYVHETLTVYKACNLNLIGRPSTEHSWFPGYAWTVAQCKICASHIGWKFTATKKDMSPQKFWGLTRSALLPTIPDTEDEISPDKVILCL
T1 sequence (Q16531 whole entry partner): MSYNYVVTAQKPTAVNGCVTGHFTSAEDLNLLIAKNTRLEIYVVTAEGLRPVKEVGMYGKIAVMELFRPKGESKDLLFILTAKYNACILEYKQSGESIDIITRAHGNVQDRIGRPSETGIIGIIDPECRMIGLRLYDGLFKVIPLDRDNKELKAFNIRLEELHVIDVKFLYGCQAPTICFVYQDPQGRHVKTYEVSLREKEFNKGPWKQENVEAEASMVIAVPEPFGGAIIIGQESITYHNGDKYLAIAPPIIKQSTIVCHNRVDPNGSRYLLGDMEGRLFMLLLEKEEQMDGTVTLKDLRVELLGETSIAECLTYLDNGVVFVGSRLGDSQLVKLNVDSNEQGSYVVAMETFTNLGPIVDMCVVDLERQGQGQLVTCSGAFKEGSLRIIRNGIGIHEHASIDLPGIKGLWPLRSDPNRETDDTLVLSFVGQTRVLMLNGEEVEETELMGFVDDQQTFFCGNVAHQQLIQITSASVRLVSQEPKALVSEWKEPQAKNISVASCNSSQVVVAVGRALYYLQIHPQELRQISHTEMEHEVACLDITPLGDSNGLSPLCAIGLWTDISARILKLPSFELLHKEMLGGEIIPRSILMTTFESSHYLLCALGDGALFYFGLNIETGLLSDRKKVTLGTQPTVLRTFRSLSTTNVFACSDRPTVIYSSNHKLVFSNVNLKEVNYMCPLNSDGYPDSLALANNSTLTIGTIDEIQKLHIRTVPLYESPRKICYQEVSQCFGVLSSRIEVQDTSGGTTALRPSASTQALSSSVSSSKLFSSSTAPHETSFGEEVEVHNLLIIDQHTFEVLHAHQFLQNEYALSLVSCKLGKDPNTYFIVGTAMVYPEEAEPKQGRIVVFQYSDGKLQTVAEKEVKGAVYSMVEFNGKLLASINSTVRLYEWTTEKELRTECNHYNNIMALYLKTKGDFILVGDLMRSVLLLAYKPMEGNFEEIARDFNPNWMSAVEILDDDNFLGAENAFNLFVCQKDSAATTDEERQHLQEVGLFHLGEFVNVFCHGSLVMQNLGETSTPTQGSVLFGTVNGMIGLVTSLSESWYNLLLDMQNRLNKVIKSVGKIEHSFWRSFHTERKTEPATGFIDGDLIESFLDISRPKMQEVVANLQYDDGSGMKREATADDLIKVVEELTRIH

Nc1cccc2c1CN(C1CCC(=O)NC1=O)C2=O (centres unmarked) [lenalidomide, 3-(4-amino-1-oxo-1,3-dihydro-2H-isoindol-2-yl)piperidine-2,6-dione]
IC50 (OPM-2 [1]): 37.4 µM | IC50 (RPMI-8226): 6.43 µM | tumor growth and tumor burden in mice administered CAR+ T cells (OPM-2 [2]; 10 mg/kg i.p. daily, 1×10^6 CAR-T cells, both donors, through day 60): slower tumor growth and reduced tumor burden | survival, donor 1 and donor 2 (OPM-2 [2]; [9]): increased survival | tumor burden, donor 1 (OPM-2 [2]; [9]): significant decrease | CAR T counts in the peripheral blood after 7 days (OPM-2 [2]; concurrent lenalidomide dosing regimen, not at later time points): increased | mock CAR T effect on tumor burden, donor 1 (OPM-2 [2]; lenalidomide with mock cells): small, but significant | CAR-mediated cytolytic activity [3]: reduced

O=C1CC[C@H](N2Cc3c(OCc4ccc(CN5CCOCC5)cc4)cccc3C2=O)C(=O)N1 [Compound 2, (S)-3-[4-(4-morpholin-4-ylmethyl-benzyloxy)-1-oxo-1,3-dihydro-isoindol-2-yl]-piperidine-2,6-dione]
cytolytic function against Granta-519 tumor spheroids (tumor volume after 9 days) ([4]; 0.001 μM or 0.01 μM concurrent): significantly increased cytolytic function | IFNγ in supernatant ([4]; 5 days co-culture, concurrent treatment): statistically significant increase | improvement in cytolytic function compared with Compound 1 ([4]; concurrent treatment): greater with concurrent treatment with Compound 2 than Compound 1 | cytolytic activity (tumor cell number over time) [5]: statistically significant improvement in cytolytic activity | A549.CD19 spheroid growth ([6]; 0.001 μM, 0.01 μM, or 0.1 μM rescue, Day 9): improved CAR T cell cytolytic | IFNγ in supernatant [6, 10]: statistically significant increase | number of CAR T cells in co-cultures with tumor spheroids ([6]; day 5): increased | Granta-519 spheroid growth ([7]; 0.001 μM or 0.01 μM rescue, Day 9): improved CAR T cell cytolytic | IFNγ in supernatant [7, 10]: statistically significant increase | improvement in cytolytic function compared with Compound 1 ([7]; rescue treatment): greater following rescue treatment with Compound 2 than Compound 1 | cytolytic activity (tumor cell number over time) [8]: improved

Cc1nc2cccc(N)c2c(=O)n1C1CCC(=O)NC1=O (centres unmarked) [Compound 1, 3-(5-amino-2-methyl-4-oxo-4H-quinazolin-3-yl)-piperidine-2,6-dione]
reduction in Ikaros expression compared to lenalidomide (Ikaros): greater reduction | intracellular Ikaros expression (Ikaros; CD4+ and CD8+ anti-CD19 CAR-expressing T cells): concentration-dependent decrease | median fluorescence intensity of phosphorylated STAT5 (pSTAT5) (phosphorylated STAT5): increased | expression of genes associated with a hypofunctional, exhausted state (anti-CD19 CAR T cells): partial reversal of expressed genes
